Results taken from PMC8161055, “Synthesis and α-Glucosidase Inhibition Activity of 2-[3-(Benzoyl/4-bromobenzoyl)-4-hydroxy-1,1-dioxido-2H-benzo[e][1,2]thiazin-2-yl]-N-arylacetamides: An In Silico and Biochemical Approach” (Molecules, 2021).
Read-outs that look alike come from different tables or passages of the source.

Assays:
[1] = molecular target: T1, α-glucosidase (Saccharomyces cerevisiae, UniProt P53341); test: biochemical; format: biochemical; details: for inhibition at 200 µM: read-out: Inhibitions (%)
T1 construct: purchased Sigma-Aldrich, Munich, Germany
Protocol: In vitro analysis of all the synthesized compounds was performed in order to justify the validity of in silico outcomes. Results were found in good agreement with the in silico study. […] A general spectrophotometric technique was used to perform the α-glucosidase inhibition assay with slight modifications. […] The experiment was repeated thrice and inhibition percentages were calculated using the following formula. % Inhibition = [(A control − A sample) / A control] × 100(1) where ‘A’ stands for absorbance.

T1 sequence (P53341 whole entry): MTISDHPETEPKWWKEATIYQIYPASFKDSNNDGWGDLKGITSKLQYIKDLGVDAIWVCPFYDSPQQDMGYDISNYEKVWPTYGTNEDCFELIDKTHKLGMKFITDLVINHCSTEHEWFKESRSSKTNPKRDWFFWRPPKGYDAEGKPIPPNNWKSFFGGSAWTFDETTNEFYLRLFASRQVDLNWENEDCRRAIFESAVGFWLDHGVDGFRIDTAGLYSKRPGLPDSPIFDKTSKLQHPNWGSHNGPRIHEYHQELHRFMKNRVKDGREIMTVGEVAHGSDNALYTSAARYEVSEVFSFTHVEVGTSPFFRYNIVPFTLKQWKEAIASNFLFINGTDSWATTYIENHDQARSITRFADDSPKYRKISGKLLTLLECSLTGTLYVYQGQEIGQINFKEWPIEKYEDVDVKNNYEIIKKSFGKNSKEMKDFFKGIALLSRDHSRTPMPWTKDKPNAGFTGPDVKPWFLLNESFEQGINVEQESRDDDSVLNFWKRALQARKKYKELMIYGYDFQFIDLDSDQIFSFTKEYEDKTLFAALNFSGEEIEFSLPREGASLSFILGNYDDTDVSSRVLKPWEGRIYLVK

IC50 ([1]; PNPG substrate, pH 6.8, 37 °C, read-out: IC50) [µM] | Inhibitions (%) ([1]; at 200 μM concentration) | Molecule | inhibition at 200 µM [1] [%] | melting point [°C] | IC50 [1] [µM]
58.5 | 65 | 2-(3-(4-Bromobenzoyl)-4-hydroxy-1,1-dioxido-2H-benzo[e][1,2]thiazin-2-yl)-N-(4-methoxyphenyl)acetamide [Compound 12m] | – | – | –
– | – | O=C(C1=C(O)c2ccccc2S(=O)(=O)N1)c1ccccc1 [Compound 9a, (4-Hydroxy-1,1-dioxido-2H-benzo[e][1,2]thiazin-3-yl)(phenyl)methanone] | 20 | 156 to 157 | –
– | – | O=C(C1=C(O)c2ccccc2S(=O)(=O)N1)c1ccc(Br)cc1 [Compound 9b, (4-Bromophenyl)(4-hydroxy-1,1-dioxido-2H-benzo[e][1,2]thiazin-3-yl)methanone] | 55 | 144 to 146 | > 100
– | – | O=C(CN1C(C(=O)c2ccccc2)=C(O)c2ccccc2S1(=O)=O)Nc1ccccc1Cl [Compound 11a, 2-(3-Benzoyl-4-hydroxy-1,1-dioxido-2H-benzo[e][1,2]thiazin-2-yl)-N-(2-chlorophenyl)acetamide] | 39 | 141 to 142 | –
– | – | O=C(CN1C(C(=O)c2ccccc2)=C(O)c2ccccc2S1(=O)=O)Nc1cccc(Cl)c1 [Compound 11b, 2-(3-Benzoyl-4-hydroxy-1,1-dioxido-2H-benzo[e][1,2]thiazin-2-yl)-N-(3-chlorophenyl)acetamide] | 32 | 182 to 184 | –
– | – | O=C(CN1C(C(=O)c2ccccc2)=C(O)c2ccccc2S1(=O)=O)Nc1ccc(Cl)cc1 [Compound 11c, 2-(3-Benzoyl-4-hydroxy-1,1-dioxido-2H-benzo[e][1,2]thiazin-2-yl)-N-(4-chlorophenyl)acetamide] | 79 | 146 to 148 | 30.6
– | – | Cc1ccccc1NC(=O)CN1C(C(=O)c2ccccc2)=C(O)c2ccccc2S1(=O)=O [Compound 11d, 2-(3-Benzoyl-4-hydroxy-1,1-dioxido-2H-benzo[e][1,2]thiazin-2-yl)-N-(o-tolyl)acetamide] | 10 | 165 to 167 | –
– | – | Cc1cccc(NC(=O)CN2C(C(=O)c3ccccc3)=C(O)c3ccccc3S2(=O)=O)c1 [Compound 11e, 2-(3-Benzoyl-4-hydroxy-1,1-dioxido-2H-benzo[e][1,2]thiazin-2-yl)-N-(m-tolyl)acetamide] | 15 | 177 to 178 | –
– | – | Cc1ccc(NC(=O)CN2C(C(=O)c3ccccc3)=C(O)c3ccccc3S2(=O)=O)cc1 [Compound 11f, 2-(3-Benzoyl-4-hydroxy-1,1-dioxido-2H-benzo[e][1,2]thiazin-2-yl)-N-(p-tolyl)acetamide] | 37 | 136 to 137 | –
– | – | O=C(CN1C(C(=O)c2ccccc2)=C(O)c2ccccc2S1(=O)=O)Nc1ccccc1[N+](=O)[O-] [Compound 11g, 2-(3-Benzoyl-4-hydroxy-1,1-dioxido-2H-benzo[e][1,2]thiazin-2-yl)-N-(2-nitrophenyl)acetamide] | 58 | 157 to 158 | 88.1
– | – | O=C(CN1C(C(=O)c2ccccc2)=C(O)c2ccccc2S1(=O)=O)Nc1cccc([N+](=O)[O-])c1 [Compound 11h, 2-(3-Benzoyl-4-hydroxy-1,1-dioxido-2H-benzo[e][1,2]thiazin-2-yl)-N-(3-nitrophenyl)acetamide] | 63 | 170 to 172 | 47.1
– | – | O=C(CN1C(C(=O)c2ccccc2)=C(O)c2ccccc2S1(=O)=O)Nc1ccc([N+](=O)[O-])cc1 [Compound 11i, 2-(3-Benzoyl-4-hydroxy-1,1-dioxido-2H-benzo[e][1,2]thiazin-2-yl)-N-(4-nitrophenyl)acetamide] | 77 | 194 to 195 | 40.4
– | – | O=C(CN1C(C(=O)c2ccccc2)=C(O)c2ccccc2S1(=O)=O)Nc1cccc(Br)c1 [Compound 11j, 2-(3-Benzoyl-4-hydroxy-1,1-dioxido-2H-benzo[e][1,2]thiazin-2-yl)-N-(3-bromophenyl)acetamide] | 50 | 163 to 166 | > 100
